# Measurements published in ChEMBL document CHEMBL3600320, “An oxidative coupling product of luteolin with cysteine ester and its enhanced inhibitory activity for xanthine oxidase” (Bioorg Med Chem Lett, 2015).
# Legend:
# [1] = biological target: T1, Xanthine dehydrogenase/oxidase (Homo sapiens, UniProt P47989); assay: Inhibition of xanthine oxidase (unknown origin) using xanthine as substrate at 33 to 100 umol/L after 10 mins by HPLC method relative to control
# [2] = biological target: T1, Xanthine dehydrogenase/oxidase; assay: Inhibition of xanthine oxidase (unknown origin) using xanthine as substrate after 10 mins by HPLC method
# T1 sequence (P47989 whole entry): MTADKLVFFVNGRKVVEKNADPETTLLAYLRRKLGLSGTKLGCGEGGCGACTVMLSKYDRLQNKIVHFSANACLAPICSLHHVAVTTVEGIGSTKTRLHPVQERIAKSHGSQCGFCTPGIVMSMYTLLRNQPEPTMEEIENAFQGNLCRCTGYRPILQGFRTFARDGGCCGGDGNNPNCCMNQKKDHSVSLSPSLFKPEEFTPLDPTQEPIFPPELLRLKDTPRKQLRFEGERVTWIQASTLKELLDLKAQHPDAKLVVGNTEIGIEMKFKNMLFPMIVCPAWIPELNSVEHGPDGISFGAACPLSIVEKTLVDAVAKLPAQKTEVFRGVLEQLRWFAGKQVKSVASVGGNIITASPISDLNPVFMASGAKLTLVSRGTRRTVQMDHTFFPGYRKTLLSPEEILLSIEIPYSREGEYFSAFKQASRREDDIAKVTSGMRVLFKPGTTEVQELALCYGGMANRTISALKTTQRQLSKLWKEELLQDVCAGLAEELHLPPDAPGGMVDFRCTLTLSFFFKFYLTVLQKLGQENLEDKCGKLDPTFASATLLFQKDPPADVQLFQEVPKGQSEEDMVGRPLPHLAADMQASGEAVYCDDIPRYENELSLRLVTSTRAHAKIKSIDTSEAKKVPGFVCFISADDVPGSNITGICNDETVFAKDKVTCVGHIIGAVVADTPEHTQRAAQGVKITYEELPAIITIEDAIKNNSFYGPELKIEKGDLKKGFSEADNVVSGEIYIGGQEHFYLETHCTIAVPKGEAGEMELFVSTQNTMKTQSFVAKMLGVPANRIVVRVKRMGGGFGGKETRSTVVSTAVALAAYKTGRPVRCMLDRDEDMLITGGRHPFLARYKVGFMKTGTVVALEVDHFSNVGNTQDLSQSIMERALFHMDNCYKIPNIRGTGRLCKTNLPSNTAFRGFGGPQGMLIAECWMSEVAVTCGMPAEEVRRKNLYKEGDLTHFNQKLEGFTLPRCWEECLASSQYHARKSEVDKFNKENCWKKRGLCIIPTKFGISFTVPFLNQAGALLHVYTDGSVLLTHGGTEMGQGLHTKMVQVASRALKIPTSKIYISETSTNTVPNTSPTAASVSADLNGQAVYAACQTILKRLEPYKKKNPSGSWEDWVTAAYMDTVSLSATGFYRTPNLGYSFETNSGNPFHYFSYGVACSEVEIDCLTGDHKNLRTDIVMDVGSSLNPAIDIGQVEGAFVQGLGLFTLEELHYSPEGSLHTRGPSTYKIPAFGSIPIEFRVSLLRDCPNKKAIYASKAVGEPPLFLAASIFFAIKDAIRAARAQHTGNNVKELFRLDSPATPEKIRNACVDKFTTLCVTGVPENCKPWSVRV
Compound,inhibition (INH) [1] [%],IC50 [2] [µM],"inhibition (INH) ([2]; human, 10 min)"
O=c1c(O)c(-c2cc(O)c(O)c(O)c2)oc2cc(O)cc(O)c12 [MYRICETIN],> 50,,
CCOC(=O)C1=Nc2c(O)ccc(-c3cc(=O)c4c(O)cc(O)cc4o3)c2SC1,,1.7,Dose-dependent effect
O=c1c(O)c(-c2ccc(O)cc2)oc2cc(O)cc(O)c12 [KAEMPFEROL],> 50,,
O=c1c(O)c(-c2ccc(O)c(O)c2)oc2cc(O)cc(O)c12 [QUERCETIN],> 50,,
O=c1cc(-c2ccc(O)c(O)c2)oc2cc(O)cc(O)c12 [LUTEOLIN],> 50,7.8,
